In patent US6245790A, “Oxazole compounds useful as PGE2 agonists and antagonists” (Fujisawa Pharmaceutical Co., Ltd., priority 1997, dated 2001):

Experiments:
[1] = target: T1, prostanoide receptor subtype (human EP4) (Homo sapiens, UniProt P35408); assay: Binding assay using expression of prostanoide receptor subtype ([3H]-PGE2 competition, COS-7 membrane fraction); conditions: compound at 10 μM, 1 hour at 30° C., COS-7 cells transfected human EP4
T1 construct: expressed in transfected cells; host or cells: COS-7
T1 sequence (P35408 whole entry): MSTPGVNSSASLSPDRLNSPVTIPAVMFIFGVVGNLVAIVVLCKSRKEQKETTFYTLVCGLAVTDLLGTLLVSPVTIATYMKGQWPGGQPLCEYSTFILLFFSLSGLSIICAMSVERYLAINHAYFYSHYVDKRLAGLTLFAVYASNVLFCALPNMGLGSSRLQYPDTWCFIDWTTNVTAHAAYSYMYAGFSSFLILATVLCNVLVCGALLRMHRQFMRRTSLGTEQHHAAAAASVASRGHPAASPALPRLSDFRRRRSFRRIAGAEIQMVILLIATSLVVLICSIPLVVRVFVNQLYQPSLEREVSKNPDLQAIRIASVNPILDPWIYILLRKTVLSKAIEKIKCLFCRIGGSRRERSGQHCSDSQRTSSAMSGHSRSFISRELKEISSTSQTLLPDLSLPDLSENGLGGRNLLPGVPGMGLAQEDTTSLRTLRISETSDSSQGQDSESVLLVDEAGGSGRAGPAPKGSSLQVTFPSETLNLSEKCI
Protocol: Binding Assay Using Expression of Prostanoide Receptor Subtype
The membrane fraction was prepared using COS-7 cells transfected prostanoide receptor subtype (human EP4).
The Standard assay mixture contained membrane fraction, [^3 H]-PGE2 in final volume of 0.25 ml was incubated for 1 hour at 30° C. The reaction was terminated by that the mixture was rapidly filtered through a glass filter (GF/B). Then the filter was washed by 4 ml of ice-cold buffer at two times. The radioactivity associated with the filter was measured by liquid scintillation counting.
In the experiment for competition of specific [^3 H]-PGE2 was added at a concentration of 10 μM. The following buffer was used in all reactions.
Buffer: 20 mM Mes (pH 6.0), 1 mM EDTA, 10 mM MgCl2

Mouse B Lymphocytes = assay: Effect on PGE2-induced IgE and IgG1 secretion in mouse B lymphocytes (LPS and IL-4, ELISA); format: cell-based, mouse (BDF1); conditions: + 10^-5 M Test Compound, LPS and IL-4, 6 days, Mean ± S.E.M. (n = 4)
Protocol: Effect on IgE and IgG1 Secretion in Mouse B Lymphocytes
Inhibitory properties of a test compound against PGE2 -induced IgE and IgG1 secretion in isolated resting B lymphocytes of mice were tested. Resting mouse B lymphocytes were isolated from spleens of 12-week-old BDF1 male mice (Clea Japan Inc.) using adherent cell depletion, negative selection by FITC-anti-Thy 1.2 (30H12), FITC-anti-CD4 (GK1.5), FITC-anti-CD11b (M1/70) and FITC-anti-CD8a (5.-6.7) (Pharmingen) with anti-FITC Ab coating magnetic beads (PerSpective Daiagnostics) and Percoll gradient (Pharmacia). Resting B lymphocytes were cultured in flat-bottomed96-well microtiter plates (Becton Dickinson) at 1×10^6 cells per ml and preincubated with a test compound or DMSO control for 30 minutes. Then PGE2 were added at 10^-6 M. After 1 hour, LPS and IL-4 were added and incubated at 37° C. in a humidified atmosphere with 5% CO2. After 6 days, supernatants were collected and IgE and IgG1 were measured by the ELISA.

Structure (SMILES) | inhibition at 10 µM [1] [%] | IgG1 secretion (Mouse B Lymphocytes; + 10^-6 M PGE2, # p < 0.01 v.s. Control (-PGE2)) [ng/mL] | IgE secretion (Mouse B Lymphocytes; + 10^-6 M PGE2, * p < 0.01 v.s. Control (+10^-6 M PGE2)) [ng/mL] | IgE secretion (Mouse B Lymphocytes; -PGE2) [ng/mL] | IgG1 secretion (Mouse B Lymphocytes; -PGE2) [ng/mL]
COc1cccc(C[C@@H]2CCC=C2c2nc(-c3ccccc3)c(-c3ccccc3)o2)c1 [Test Compound (1), (S)-2-(4,5-Diphenyloxazol-2-yl)-1-(3-methoxybenzyl)-2-cyclopentene] | > 80 | – | – | – | –
O=C(O)c1ccc(C[C@@H]2CCCC=C2c2nc(-c3ccccc3)c(-c3ccccc3)o2)cc1 [Test Compound (2), (S)-4-{[2-(4,5-Diphenyloxazol-2-yl)-2-cyclohexen-1-yl]-methyl}benzoic acid] | > 80 | – | – | – | –
NC(=O)COc1cccc(C[C@@H]2CCCC=C2c2nc(-c3ccccc3)c(-c3ccccc3)o2)c1 [Test Compound (3), (S)-{3-{[2-(4,5-Diphenyloxazol-2-yl)-2-cyclohexen-1-yl]-methyl}phenoxy}actamide] | > 80 | – | – | – | –
O=C([O-])c1cccc(C[C@@H]2CCCC=C2c2nc(-c3ccccc3)c(-c3ccccc3)o2)c1.[Na+] [Test Compound, Sodium (S)-3-{[2-(4,5-diphenyloxazol-2-yl)-2-cyclohexen-1-yl]methyl}benzoate] | – | 1607.6 ± 150.9 | 37.0 ± 7.0 | 21.2 ± 5.7 | 1053.0 ± 176.2
